Assay results: patent EP4725957A1, “GROUP OF CYCLIC ALKALINE LIPOPEPTIDE COMPOUNDS, AND PREPARATION METHOD THEREFOR AND USE THEREOF” (Institute of Medicinal Biotechnology, Chinese Academy of …, priority 2023, dated 2024)
In brackets after ≈: the same amount, converted by molar mass. Where two headings read alike, the source gives them in different places. Bridge positions count the residues as written; N and C are the ends. Square brackets hold non-standard residues; d marks the D form. Peptide text beside a SMILES is read from it. * marks the point of attachment. Heptanoyl(6-Me) = CC(C)CCCCC(=O)*; Sulfomethyl = O=S(=O)(O)C*; dOrn = NCCC[C@@H](N)C(=O)O; X1 = CC[C@H](C)CCCCC(=O)*; Heptanoyl = CCCCCCC(=O)*; Octanoyl = CCCCCCCC(=O)*; Orn = NCCC[C@H](N)C(=O)O; dDap = NC[C@@H](N)C(=O)O; Dab = NCC[C@H](N)C(=O)O; Dap = NC[C@H](N)C(=O)O

Key:
Type in all cases: cell-based
[1] = tested on: Escherichia coli ATCC BAA-2340 (KPC)
Procedure, shortened: (§1)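 MIC by CLSI broth microdilution; MH broth; final drug 64–0.03 mg/L, 2-fold; inoculum (2-4) × 10^5 CFU/mL from 0.5 McFarland suspension of 18-24 h colonies; 35-37°C, 16-20 h; growth controls included.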

[2] = tested on: Escherichia coli ATCC BAA-2523
Procedure, shortened: as §1

[3] = tested on: Acinetobacter baumannii ABA19-1
Procedure, shortened: as §1

[4] = tested on: Klebsiella pneumoniae KPN+19-15
Procedure, shortened: as §1

[5] = tested on: Acinetobacter baumannii NCTC 13304 (OXA-27)
Procedure, shortened: as §1

[6] = tested on: Pseudomonas aeruginosa ATCC 27853
Procedure, shortened: as §1

[7] = tested on: Pseudomonas aeruginosa PAE19-3
Procedure, shortened: as §1

[8] = tested on: Klebsiella pneumoniae ATCC BAA-1705 (KPC)
Procedure, shortened: as §1

[9] = Nephrotoxicity assay: in vitro cytotoxicity of HK-2 cells by CCK-8 assay; conditions: human, HK-2 cells (human renal), 72 h incubation with drug-containing medium
Procedure, shortened: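 Compounds in sterile water, diluted to final 500, 250, 200, 100, 50, 25 and 12.5 µg/mL, were applied for 72 h to human HK-2 kidney cells. Absorbance at 450 nm after 3 h CCK-8 gave viability against untreated wells, and IC50 came from logarithmic regression; three replicates.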

| SMILES | MIC ([1]; ATCC BAA-2340) | MIC ([2]; ATCC BAA-2523) | MIC ([3]; ABA19-1) | MIC ([4]; KPN+19-15) | MIC ([5]; NCTC 13304) | MIC ([6]; ATCC 27853) | MIC ([7]; PAE19-3) | MIC ([8]; ATCC BAA-1705) | IC50 at 72 h [9] | MIC ([1]; Escherichia coli ATCC BAA-2340 (KPC)) | MIC ([2]; Escherichia coli ATCC BAA-2523) | MIC ([3]; Acinetobacter baumannii ABA19-1) | MIC ([4]; Klebsiella pneumoniae KPN 19-15) | MIC ([5]; Acinetobacter baumannii NCTC 13304 (OXA-27)) | MIC ([6]; Pseudomonas aeruginosa ATCC27853) | MIC ([7]; Pseudomonas aeruginosa PAE19-3) | MIC ([8]; Klebsiella pneumoniae ATCC BAA-1705 (KPC)) |
| --- | --- | --- | --- | --- | --- | --- | --- | --- | --- | --- | --- | --- | --- | --- | --- | --- | --- |
| CCCCCCCC(=O)N[C@@H](CN)C(=O)N[C@H](C(=O)N[C@H](CO)C(=O)N[C@H]1CCNC(=O)[C@H]([C@@H](C)O)NC(=O)[C@H](CCN)NC(=O)[C@H](CCN)NC(=O)[C@H]([C@@H](C)O)NC(=O)[C@@H](Cc2ccccc2)NC(=O)[C@H](CCN)NC1=O)[C@@H](C)O [Compound 53, Octanoyl-Dap-Thr-D-Ser-ring(4-10)[Dab-Dab-D-Phe-Thr-Dab-Dab-Thr]] (Octanoyl-[Dap]T[dS][Dab][Dab][dF]T[Dab][Dab]T; lactam 4-C) | ≤0.03 µg/mL | ≤0.03 µg/mL | 0.25 µg/mL (≈ 0.217 µM) | 0.5 µg/mL (≈ 0.435 µM) | 0.25 µg/mL (≈ 0.217 µM) | 64 µg/mL (≈ 55.6 µM) | 4 µg/mL (≈ 3.48 µM) | 0.25 µg/mL (≈ 0.217 µM) | > 500 µg/mL |  |  |  |  |  |  |  |  |
| CC(C)CCCCC(=O)N[C@@H](CCN)C(=O)N[C@H](C(=O)N[C@H](CN)C(=O)N[C@H]1CCNC(=O)[C@H]([C@@H](C)O)NC(=O)[C@H](CCN)NC(=O)[C@H](CCN)NC(=O)[C@H]([C@@H](C)O)NC(=O)[C@H](Cc2ccccc2)NC(=O)[C@H](CCN)NC1=O)[C@@H](C)O [Compound 102, 6-methylheptanoyl-Dab-Thr-D-Dap-ring(4-10)[Dab-Dab-Phe-Thr-Dab-Dab-Thr]] ({Heptanoyl(6-Me)}-[Dab]T[dDap][Dab][Dab]FT[Dab][Dab]T; lactam 4-C) |  |  |  |  |  |  |  |  | > 500 µg/mL | >64 µg/mL | >64 µg/mL | >64 µg/mL | >64 µg/mL | >64 µg/mL | >64 µg/mL | >64 µg/mL | >64 µg/mL |
| CC[C@H](C)CCCCC(=O)N[C@@H](CCN)C(=O)N[C@H](C(=O)N[C@H](CO)C(=O)N[C@H]1CCNC(=O)[C@H]([C@@H](C)O)NC(=O)[C@H](CCCN)NC(=O)[C@H](CCN)NC(=O)[C@H]([C@@H](C)O)NC(=O)[C@@H](Cc2ccccc2)NC(=O)[C@H](CCN)NC1=O)[C@@H](C)O [Compound 86, (S)-6-methyloctanoyl-Dab-Thr-D-Ser-ring(4-10)[Dab-Dab-D-Phe-Thr-Dab-Orn-Thr]] (X1-[Dab]T[dS][Dab][Dab][dF]T[Dab][Orn]T; lactam 4-C) | 0.03 µg/mL (≈ 0.0252 µM) | 0.03 µg/mL (≈ 0.0252 µM) | 0.06 µg/mL (≈ 0.0503 µM) | 0.5 µg/mL (≈ 0.419 µM) | ≤0.03 µg/mL | >64 µg/mL | 64 µg/mL (≈ 53.7 µM) | 0.25 µg/mL (≈ 0.21 µM) | > 500 µg/mL |  |  |  |  |  |  |  |  |
| CC[C@H](C)CCCCC(=O)N[C@@H](CCN)C(=O)N[C@H](C(=O)N[C@H](CCCN)C(=O)N[C@H]1CCNC(=O)[C@H]([C@@H](C)O)NC(=O)[C@H](CCN)NC(=O)[C@H](CCN)NC(=O)[C@H](CC(C)C)NC(=O)[C@@H](Cc2ccccc2)NC(=O)[C@H](CCN)NC1=O)[C@@H](C)O [Compound 41, (S)-6-methyloctanoyl-Dab-Thr-D-Orn-ring(4-10)[Dab-Dab-D-Phe-Leu-Dab-Dab-Thr]] (X1-[Dab]T[dOrn][Dab][Dab][dF]L[Dab][Dab]T; lactam 4-C) | 0.03 µg/mL (≈ 0.0246 µM) | 0.03 µg/mL (≈ 0.0246 µM) | 0.125 µg/mL (≈ 0.103 µM) | 0.125 µg/mL (≈ 0.103 µM) | 0.06 µg/mL (≈ 0.0493 µM) | 0.25 µg/mL (≈ 0.205 µM) | 1 µg/mL (≈ 0.821 µM) | 0.06 µg/mL (≈ 0.0493 µM) | 259 ± 7.8 µg/mL (≈ 212 µM) |  |  |  |  |  |  |  |  |
| CCCCCCC(=O)N[C@@H](CCN)C(=O)N[C@H](C(=O)N[C@H](CO)C(=O)N[C@H]1CCNC(=O)[C@H]([C@@H](C)O)NC(=O)[C@H](CCN)NC(=O)[C@H](CCN)NC(=O)[C@H]([C@@H](C)O)NC(=O)[C@@H](Cc2ccccc2)NC(=O)[C@H](CN)NC1=O)[C@@H](C)O [Compound 64, Heptanoyl-Dab-Thr-D-Ser-ring(4-10)[Dab-Dap-D-Phe-Thr-Dab-Dab-Thr]] (Heptanoyl-[Dab]T[dS][Dab][Dap][dF]T[Dab][Dab]T; lactam 4-C) | 0.25 µg/mL (≈ 0.22 µM) | 0.25 µg/mL (≈ 0.22 µM) | 0.25 µg/mL (≈ 0.22 µM) | 0.5 µg/mL (≈ 0.44 µM) | 0.25 µg/mL (≈ 0.22 µM) | 64 µg/mL (≈ 56.3 µM) | 8 µg/mL (≈ 7.04 µM) | 0.25 µg/mL (≈ 0.22 µM) | > 500 µg/mL |  |  |  |  |  |  |  |  |
| CC(C)CCCCC(=O)N[C@@H](CCN)C(=O)N[C@H](C(=O)N[C@@H](CCCN)C(=O)N[C@H]1CCNC(=O)[C@H]([C@@H](C)O)NC(=O)[C@H](CCN)NC(=O)[C@H](CCN)NC(=O)[C@H]([C@@H](C)O)NC(=O)[C@@H](Cc2ccccc2)NC(=O)[C@H](CCN)NC1=O)[C@@H](C)O [Compound 27, 6-methylheptanoyl-Dab-Thr-Orn-ring(4-10)[Dab-Dab-D-Phe-Thr-Dab-Dab-Thr]] ({Heptanoyl(6-Me)}-[Dab]T[Orn][Dab][Dab][dF]T[Dab][Dab]T; lactam 4-C) | ≤0.03 µg/mL | ≤0.03 µg/mL | 0.125 µg/mL (≈ 0.105 µM) | ≤0.03 µg/mL | 0.06 µg/mL (≈ 0.0504 µM) | ≤0.03 µg/mL | 0.25 µg/mL (≈ 0.21 µM) | ≤0.03 µg/mL | > 500 µg/mL |  |  |  |  |  |  |  |  |
| CCCCCCCC(=O)N[C@@H](CCN)C(=O)N[C@H](C(=O)N[C@H](CN)C(=O)N[C@H]1CCNC(=O)[C@H]([C@@H](C)O)NC(=O)[C@H](CCN)NC(=O)[C@H](CCN)NC(=O)[C@H]([C@@H](C)O)NC(=O)[C@@H](Cc2ccccc2)NC(=O)[C@H](CCN)NC1=O)[C@@H](C)O [Compound 3, Octanoyl-Dab-Thr-D-Dap-ring(4-10)[Dab-Dab-D-Phe-Thr-Dab-Dab-Thr]] (Octanoyl-[Dab]T[dDap][Dab][Dab][dF]T[Dab][Dab]T; lactam 4-C) | ≤0.03 µg/mL | ≤0.03 µg/mL | ≤0.03 µg/mL | ≤0.03 µg/mL | ≤0.03 µg/mL | 0.03 µg/mL (≈ 0.0258 µM) | 0.25 µg/mL (≈ 0.215 µM) | ≤0.03 µg/mL | > 500 µg/mL |  |  |  |  |  |  |  |  |
| CC(C)CCCCC(=O)N[C@@H](CCN)C(=O)N[C@H](C(=O)N[C@H](CO)C(=O)N[C@H]1CCNC(=O)[C@H]([C@@H](C)O)NC(=O)[C@H](CN)NC(=O)[C@H](CCN)NC(=O)[C@H]([C@@H](C)O)NC(=O)[C@@H](Cc2ccccc2)NC(=O)[C@H](CCN)NC1=O)[C@@H](C)O [Compound 82, 6-methylheptanoyl-Dab-Thr-D-Ser-ring(4-10)[Dab-Dab-D-Phe-Thr-Dab-Dap-Thr]] ({Heptanoyl(6-Me)}-[Dab]T[dS][Dab][Dab][dF]T[Dab][Dap]T; lactam 4-C) | 0.03 µg/mL (≈ 0.0261 µM) | 0.03 µg/mL (≈ 0.0261 µM) | 0.06 µg/mL (≈ 0.0522 µM) | 0.5 µg/mL (≈ 0.435 µM) | ≤0.03 µg/mL | >64 µg/mL | 64 µg/mL (≈ 55.6 µM) | 0.25 µg/mL (≈ 0.217 µM) | > 500 µg/mL |  |  |  |  |  |  |  |  |
| CC(C)CCCCC(=O)N[C@@H](CCN)C(=O)N[C@H](C(=O)N[C@H](CO)C(=O)N[C@H]1CCNC(=O)[C@H]([C@@H](C)O)NC(=O)[C@H](CCN)NC(=O)[C@H](CCN)NC(=O)[C@H]([C@@H](C)OCS(=O)(=O)O)NC(=O)[C@@H](Cc2ccccc2)NC(=O)[C@H](CCN)NC1=O)[C@@H](C)O [Compound 105, 6-methylheptanoyl-Dab-Thr-D-Ser-ring(4-10)[Dab-Dab-D-Phe-Thr(CH2SO3H)-Dab-Dab-Thr]] ({Heptanoyl(6-Me)}-[Dab]T[dS][Dab][Dab][dF]T(Sulfomethyl)[Dab][Dab]T; lactam 4-C) | 0.03 µg/mL (≈ 0.0238 µM) | 0.03 µg/mL (≈ 0.0238 µM) | 0.06 µg/mL (≈ 0.0477 µM) | 0.125 µg/mL (≈ 0.0993 µM) | 0.06 µg/mL (≈ 0.0477 µM) | 0.25 µg/mL (≈ 0.199 µM) | 0.25 µg/mL (≈ 0.199 µM) | 0.125 µg/mL (≈ 0.0993 µM) | > 500 µg/mL |  |  |  |  |  |  |  |  |
